Source: PMC7769008 (Journal of medicinal chemistry, 2020)

Settings: pH 7.4

SMILES	PAMPA [×10⁻⁶ cm/s]
Nc1nnc2n(CCc3ccccc3)c(=O)c3cc(F)ccc3n12 [Compound 16, 1-Amino-7-fluoro-4-phenethyl-[1,2,4]triazolo[4,3-a]quinazolin-5(4H)-one]	885
O=c1c2cc(F)ccc2n2cnnc2n1CCc1ccccc1 [Compound 18, 7-Fluoro-4-phenethyl-[1,2,4]triazolo[4,3-a]quinazolin-5(4H)-one]	924
CCn1c(=O)c2ccccc2n2c(=S)[nH]nc12 [Compound 20, 4-Ethyl-1-thioxo-2,4-dihydro-[1,2,4]triazolo[4,3-a]quinazolin-5(1H)-one]	427
O=c1c2cc(F)ccc2n2c(=S)[nH]nc2n1CCc1ccccc1 [Compound 40, 7-Fluoro-4-phenethyl-1-thioxo-2,4-dihydro-[1,2,4]triazolo[4,3-a]quinazolin-5(1H)-one]	77.0
O=c1c2cc(Br)ccc2n2c(=S)[nH]nc2n1CCc1ccccc1 [Compound 41, 7-Bromo-4-phenethyl-1-thioxo-2,4-dihydro-[1,2,4]triazolo[4,3-a]quinazolin-5(1H)-one]	162
CC(=O)Nc1ccc2c(c1)c(=O)n(CCc1ccccc1)c1n[nH]c(=S)n21 [Compound 44, N-(5-Oxo-4-phenethyl-1-thioxo-1,2,4,5-tetrahydro-[1,2,4]-triazolo[4,3-a]quinazolin-7-yl)acetamide]	253
CN(C)c1ccc2c(c1)c(=O)n(CCc1ccccc1)c1n[nH]c(=S)n21 [Compound 45, 7-(Dimethylamino)-4-phenethyl-1-thioxo-2,4-dihydro-[1,2,4]-triazolo[4,3-a]quinazolin-5(1H)-one]	356
O=c1c2ccc(F)cc2n2c(=S)[nH]nc2n1CCc1ccccc1 [Compound 47, 8-Fluoro-4-phenethyl-1-thioxo-2,4-dihydro-[1,2,4]triazolo[4,3-a]quinazolin-5(1H)-one]	91.0
O=c1c2cccc(F)c2n2c(=S)[nH]nc2n1CCc1ccccc1 [Compound 48, 9-Fluoro-4-phenethyl-1-thioxo-2,4-dihydro-[1,2,4]triazolo[4,3-a]quinazolin-5(1H)-one]	141
O=c1c2ccncc2n2c(=S)[nH]nc2n1CCc1ccccc1 [Compound 50, 4-Phenethyl-1-thioxo-2,4-dihydropyrido[4,3-e][1,2,4]triazolo-[4,3-a]pyrimidin-5(1H)-one]	202
O=c1c2cc(F)ccc2n2c(=S)[nH]nc2n1Cc1ccccc1 [Compound 52, 4-Benzyl-7-fluoro-1-thioxo-2,4-dihydro-[1,2,4]triazolo[4,3-a]-quinazolin-5(1H)-one]	841
O=c1c2cc(Cl)ccc2n2c(=S)[nH]nc2n1CCC(F)(F)F [Compound 55, 7-Chloro-1-thioxo-4-(3,3,3-trifluoropropyl)-2,4-dihydro-[1,2,4]-triazolo[4,3-a]quinazolin-5(1H)-one]	257
CNC(=S)N1CN(CCc2ccccc2)C(=O)c2cc(F)ccc21 [Compound 62, 6-Fluoro-N-methyl-4-oxo-3-phenethyl-3,4-dihydroquinazoline-1(2H)-carbothioamide]	161
O=c1c2cc(F)ccc2n2c(=S)[nH]nc2n1CCCO [Compound 66, 7-Fluoro-4-(3-hydroxypropyl)-1-thioxo-2,4-dihydro-[1,2,4]-triazolo[4,3-a]quinazolin-5(1H)-one]	222
CC(CN(C)C)n1c(=O)c2cc(F)ccc2n2c(=S)[nH]nc12 (stereo not drawn) [Compound 71, 4-(1-(Dimethylamino)propan-2-yl)-7-fluoro-1-thioxo-2,4-dihydro-[1,2,4]triazolo[4,3-a]quinazolin-5(1H)-one]	186
CC(=O)NCCCn1c(=O)c2cc(F)ccc2n2c(=S)[nH]nc12 [Compound 73, N-(3-(7-Fluoro-5-oxo-1-thioxo-1,2-dihydro-[1,2,4]triazolo[4,3-a]-quinazolin-4(5H)-yl)propyl)acetamide]	18.0
O=C(NCCCn1c(=O)c2cc(F)ccc2n2c(=S)[nH]nc12)c1ccccc1 [Compound 74, N-(3-(7-Fluoro-5-oxo-1-thioxo-1,2-dihydro-[1,2,4]triazolo[4,3-a]-quinazolin-4(5H)-yl)propyl)benzamide]	267
O=c1c2cc(F)ccc2n2c(=S)[nH]nc2n1CC1CC1 [Compound 79, 4-(Cyclopropylmethyl)-7-fluoro-1-thioxo-2,4-dihydro-[1,2,4]-triazolo[4,3-a]quinazolin-5(1H)-one]	46.0

SMILES	PAMPA [×10⁻⁶ cm/s]
O=c1c2cc(F)ccc2n2c(=S)[nH]nc2n1CCc1ccc(Cl)cc1 [Compound 82, 4-(4-Chlorophenethyl)-7-fluoro-1-thioxo-2,4-dihydro-[1,2,4]-triazolo[4,3-a]quinazolin-5(1H)-one]	<1
O=c1c2cc(F)ccc2n2c(=S)[nH]nc2n1CCc1cccnc1 [Compound 84, 7-Fluoro-4-(2-(pyridin-3-yl)ethyl)-1-thioxo-2,4-dihydro-[1,2,4]-triazolo[4,3-a]quinazolin-5(1H)-one]	<1
CC(C)(C)OC(=O)N1CC(CCn2c(=O)c3cc(F)ccc3n3c(=S)[nH]nc23)C1 [Compound 86, tert-Butyl 3-(2-(7-fluoro-5-oxo-1-thioxo-1,2-dihydro-[1,2,4]-triazolo[4,3-a]quinazolin-4(5H)-yl)ethyl)azetidine-1-carboxylate]	229
O=c1c2cc(F)ccc2n2c(=S)[nH]nc2n1CCN1CCCCC1 [Compound 88, 7-Fluoro-4-(2-(piperidin-1-yl)ethyl)-1-thioxo-2,4-dihydro-[1,2,4]-triazolo[4,3-a]quinazolin-5(1H)-one]	358
O=c1c2cc(F)ccc2n2c(=S)[nH]nc2n1CCN1CCC(F)(F)CC1 [Compound 89, 4-(2-(4,4-Difluoropiperidin-1-yl)ethyl)-7-fluoro-1-thioxo-2,4-di-hydro-[1,2,4]triazolo[4,3-a]quinazolin-5(1H)-one]	234
O=c1c2cc(F)ccc2n2c(=S)[nH]nc2n1CCN1CCOCC1 [Compound 90, 7-Fluoro-4-(2-morpholinoethyl)-1-thioxo-2,4-dihydro-[1,2,4]-triazolo[4,3-a]quinazolin-5(1H)-one]	67.0
O=c1c2cc(F)ccc2n2c(=S)[nH]nc2n1CCC1CCC(F)(F)CC1 [Compound 93, 4-(2-(4,4-Difluorocyclohexyl)ethyl)-7-fluoro-1-thioxo-2,4-dihydro-[1,2,4]triazolo[4,3-a]quinazolin-5(1H)-one]	201
CC(C)(C)OC(=O)NCCCCCC(=O)NCCCn1c(=O)c2cc(F)ccc2n2c(=S)[nH]nc12 [Compound 101, tert-Butyl (6-((3-(7-fluoro-5-oxo-1-thioxo-1,2-dihydro-[1,2,4]-triazolo[4,3-a]quinazolin-4(5H)-yl)propyl)amino)-6-oxohexyl)-carbamate]	405
O=C(O)CCC(=O)NCCCn1c(=O)c2cc(F)ccc2n2c(=S)[nH]nc12 [Compound 106, 4-((3-(7-Fluoro-5-oxo-1-thioxo-1,2-dihydro-[1,2,4]triazolo[4,3-a]quinazolin-4(5H)-yl)propyl)amino)-4-oxobutanoic Acid]	<1
NS(=O)(=O)CCCC(=O)NCCCn1c(=O)c2cc(F)ccc2n2c(=S)[nH]nc12 [Compound 107, N-(3-(7-Fluoro-5-oxo-1-thioxo-1,2-dihydro-[1,2,4]triazolo[4,3-a]-quinazolin-4(5H)-yl)propyl)-4-sulfamoylbutanamide]	3.0
O=C(NCCCn1c(=O)c2cc(F)ccc2n2c(=S)[nH]nc12)C1CCCC1 [Compound 108, N-(3-(7-Fluoro-5-oxo-1-thioxo-1,2-dihydro-[1,2,4]triazolo[4,3-a]-quinazolin-4(5H)-yl)propyl)cyclopentanecarboxamide]	155
CC(C)(C)OC(=O)NC1CCC(C(=O)NCCCn2c(=O)c3cc(F)ccc3n3c(=S)[nH]nc23)CC1 (stereo not drawn) [Compound 110, tert-Butyl (4-((3-(7-fluoro-5-oxo-1-thioxo-1,2-dihydro-[1,2,4]-triazolo[4,3-a]quinazolin-4(5H)-yl)propyl)carbamoyl)cyclohexyl)-carbamate]	330
O=C(NCCCn1c(=O)c2cc(F)ccc2n2c(=S)[nH]nc12)C1CCOCC1 [Compound 115, N-(3-(7-Fluoro-5-oxo-1-thioxo-1,2-dihydro-[1,2,4]triazolo[4,3-a]-quinazolin-4(5H)-yl)propyl)tetrahydro-2H-pyran-4-carboxamide]	8.0
CN1CCN(CC(=O)NCCCn2c(=O)c3cc(F)ccc3n3c(=S)[nH]nc23)CC1 [Compound 117, N-(3-(7-Fluoro-5-oxo-1-thioxo-1,2-dihydro-[1,2,4]triazolo[4,3-a]-quinazolin-4(5H)-yl)propyl)-2-(4-methylpiperazin-1-yl)acetamide]	<1
O=C(CN1CCOCC1)NCCCn1c(=O)c2cc(F)ccc2n2c(=S)[nH]nc12 [Compound 118, N-(3-(7-Fluoro-5-oxo-1-thioxo-1,2-dihydro-[1,2,4]triazolo[4,3-a]-quinazolin-4(5H)-yl)propyl)-2-morpholinoacetamide]	<1
O=C(Cc1ccccc1)NCCCn1c(=O)c2cc(F)ccc2n2c(=S)[nH]nc12 [Compound 120, N-(3-(7-Fluoro-5-oxo-1-thioxo-1,2-dihydro-[1,2,4]triazolo[4,3-a]-quinazolin-4(5H)-yl)propyl)-2-phenylacetamide]	248
O=C(Cc1cccc(F)c1)NCCCn1c(=O)c2cc(F)ccc2n2c(=S)[nH]nc12 [Compound 122, N-(3-(7-Fluoro-5-oxo-1-thioxo-1,2-dihydro-[1,2,4]triazolo[4,3-a]-quinazolin-4(5H)-yl)propyl)-2-(3-fluorophenyl)acetamide]	364
O=C(Cc1cccc(Cl)c1)NCCCn1c(=O)c2cc(F)ccc2n2c(=S)[nH]nc12 [Compound 124, 2-(3-Chlorophenyl)-N-(3-(7-fluoro-5-oxo-1-thioxo-1,2-dihydro-[1,2,4]triazolo[4,3-a]quinazolin-4(5H)-yl)propyl)acetamide]	861
